Reference: patent publication US20260183302A1, “PDK1 REGULATORY COMPOUND AND COMPOSITION CONTAINING THE SAME” (PROVIBIO CO., LTD., priority 2024, published 2026)

Legend:
[1] = test system: HCT-116 colon cancer cell lines; experiment: Matrigel Invasion Assay on HCT-116 colon cancer cell line; assay type: cell-based, human; settings: HCT-116, Matrigel, 24 hours treatment, vs DMSO
Description: To evaluate the metastasis inhibitory efficacy of the compounds of the present invention on HCT-116 colon cancer cell lines, an Invasion Assay using Matrigel was performed to assess the cells' invasion ability.
First, Matrigel was thawed on ice in RPMI-1640 medium without FBS, then diluted with DMEM at a ratio of 1:20.
The diluted Matrigel mixture was applied to the upper chamber at 100 μl per well, and 750 μl of RPMI-1640 without FBS was added to the lower chamber.
The plates were then incubated at 37° C. for 1 hour to allow the Matrigel to solidify.
After coating, the Matrigel mixture in the upper chamber was removed using a pipette, and the chamber was washed with RPMI without FBS.
Human-derived colorectal cancer cell line HCT-116, obtained from the Korean Cell Bank, was cultured in RPMI-1640 medium containing 10% FBS.
Following stabilization, the cells were harvested using Trypsin-EDTA treatment, centrifuged at 1,200 rpm for 3 minutes, the supernatant was removed, and the cells were resuspended in the same medium, the medium in the lower chamber was replaced with 750 μl of RPMI-1640 supplemented with 10% FBS, and the cells were seeded into the upper chamber at a density of 5×10^4 cells/well.
The cells were cultured for 24 hours after attachment, and then the compounds according to the present invention (G078, G085, G086, G088, G089, PBK-2024-010, PBK-2025-010, PBK-2025-013, PBK-2025-016) and the control substance DMSO were diluted and added to the upper chamber after removing the medium.
Additionally, the medium in the lower chamber was replaced with fresh RPMI-1640 containing FBS, and the culture was continued.
After an additional 24 hours, the medium was removed, and 1 ml of methanol was added for 10 minutes to fix the cells.
Subsequently, 1 ml of Hematoxylin was added and reacted for 5 minutes, followed by 1 ml of Eosin, which was reacted for 30 seconds. The sample was then washed with distilled water (DW).
After staining was complete, any remaining cells in the upper chamber were removed. Finally, the infiltrated cells were observed under a microscope, photographed, and the degree of infiltration was analyzed.

[2] = test system: T cells isolated from mouse spleens; experiment: T cell proliferation inhibition (CFSE flow cytometry, anti-CD3/anti-CD28 stimulation); assay type: cell-based, C57BL/6 mice; settings: three days
Description: To verify the T cell proliferation inhibitory effect of the compounds according to the present invention, the following experiment was performed based on flow cytometry analysis using carboxyfluorescein diacetate succinimidyl ester (CFSE), a fluorescent dye that binds to intracellular molecules via covalent bonds.
Spleens were extracted from 7-week-old C57BL/6 mice, ground, and then separated into single cells using a strainer (40 μm pore size, SPL). Red blood cells were removed using ACK (Ammonium-Chloride-Potassium) lysis buffer to isolate white blood cells.
Finally, using a MACS Magnetic Stand and LS column, T cells were isolated from the spleen.
The T cells isolated from the spleen were resuspended in 1 mL of free medium (RPMI-1640+200 U/mL penicillin+200 μg/mL streptomycin), and 0.3 μL of CFSE (10 mM) was added. The mixture was incubated at 37° C. for 5 minutes.
Free medium (10 mL) was added to stop the reaction, and the cells were centrifuged to obtain the cell pellet.
RPMI 1640 medium containing 10% FBS, 100 U/mL penicillin, 100 μg/mL streptomycin, and resuspended the cells. The cells were then seeded into a 96-well plate at a density of 2× 10^5 cells per well and activated with CD3 and CD28 antibodies (0.5 μg/mL each) to activate T cells.
The compound diluted in DMSO was added at concentrations of 10 nM, 100 nM, 1 μM, 10 μM, 30 μM, and 50 μM, with three wells per concentration, and cultured at 37° C. and 5% CO2 for three days. The cells were then analyzed using a FACS Canto instrument.
The proliferation inhibition rate (%) was calculated using the following formula: […]

[3] = test system: Human B Lymphocyte cell line, SU-DHL-8; experiment: Relative cell viability, SU-DHL-8 (CCK-8); assay type: cell-based; settings: 48 hours, untreated (DMSO) = 100%
Description: Human-derived B lymphoma cell line SU-DHL-8 (Cat. #CRL-2961) purchased from ATCC was cultured in RPMI-1640 medium containing 10% FBS, 100 U/mL penicillin, and 100 μg/mL streptomycin.
The cell culture medium was then harvested, centrifuged at 1,300 rpm for 5 minutes, and the supernatant was removed. The cells were resuspended in the same medium and dispensed into a 96-well plate (Costar 96-well cell culture plate, Corning) at 90 μL per well, resulting in the conditions specified in Table 5.
Then, 10 μL of CCK-8 was added to each well, and the plates were incubated again at 37° C. in a 5% CO2 incubator for 4 hours.
In other words, when the survival rate of untreated cells (DMSO) is set at 100%, the relative cell survival rate in each group treated with the drug at different concentrations is indicated.

Molecule | number of infiltrated cells (invasion) [1] | Proliferation inhibition rate (%) ([2]; concentration 100 nM) | Proliferation inhibition rate (%) ([2]; concentration 1 μM) | Proliferation inhibition rate (%) ([2]; concentration 10 μM) | Proliferation inhibition rate (%) ([2]; concentration 30 μM) | Proliferation inhibition rate (%) ([2]; concentration 50 μM) | Relative cell viability (%) ([3]; SU-DHL-8, 1 μM) | Relative cell viability (%) ([3]; SU-DHL-8, 10 μM) | Relative cell viability (%) ([3]; SU-DHL-8, 30 μM) | Relative cell viability (%) ([3]; SU-DHL-8, 50 μM) | Proliferation inhibition rate (%) ([2]; concentration 10 nM) | Proliferation inhibition rate (%) ([2]; concentration 10 nM, listed as K-PB-48, 0.01 µM) | Relative cell viability (%) ([3]; SU-DHL-8, 1 μM, listed as K-PB-48, 1 µM) | Relative cell viability (%) ([3]; SU-DHL-8, 10 μM, listed as K-PB-48, 10 µM) | Relative cell viability (%) ([3]; SU-DHL-8, 30 μM, listed as K-PB-48, 30 µM) | Relative cell viability (%) ([3]; SU-DHL-8, 50 μM, listed as K-PB-48, 50 µM)
Nc1ncccc1C(=O)NCCCCCCCCCCCCN1CC(F)C1 [Compound 52, 2-Amino-N-(12-(3-fluoroazetidin-1-yl)dodecyl)nicotinamide] | reduction in the number of infiltrated cells | – | – | – | – | – | – | – | – | – | – | – | – | – | – | –
CC(C)(C)OC(=O)N[C@H]1CCN(CCCCCCCCCCCCNC(=O)c2cccnc2N)C1 [Compound 49, tert-Butyl(S)-(1-(12-(2-aminonicotinamido)dodecyl)pyrrolidin-3-yl) carbamate] | reduction in the number of infiltrated cells | 100.00 | 100.00 | 100.00 | 100.00 | 100.00 | 8.93 | 8.02 | 7.48 | 4.09 | – | – | – | – | – | –
Nc1ncccc1C(=O)NCCCCCCCCCCCCN1CCC(Oc2ccncc2)CC1 [Compound 38, 2-Amino-N-(12-(4-(pyridin-4-yloxy)piperidin-1-yl)dodecyl) nicotinamide] | – | 100.00 | 100.00 | 100.00 | 100.00 | 100.00 | 4.16 | 3.30 | 1.79 | 1.42 | – | – | – | – | – | –
12-(4-hydroxypiperazin-1-yl)dodecyl-N-(6-aminopurazin-2-yl) carboxamide [Compound 10] | reduction in the number of infiltrated cells | 100.00 | 100.00 | 100.00 | 100.00 | 100.00 | – | – | – | – | 100.00 | – | – | – | – | –
Cc1ccc(OC2CCN(CCCCCCCCCCCCNC(=O)c3cccnc3N)CC2)cc1 [Compound 51, 2-Amino-N-(12-(4-(p-tolyloxy)piperidin-1-yl)dodecyl) nicotinamide] | – | – | 100.00 | 100.00 | 100.00 | 100.00 | 3.48 | 1.98 | 0.89 | 0.48 | 0.77 | – | – | – | – | –
Cl.Nc1ncccc1C(=O)NCCCCCCCCCCCCN1CC[C@H](N)C1 [Compound 50, (S)-2-Amino-N-(12-(3-aminopyrrolidin-1-yl)dodecyl) nicotinamide hydrochloride] | – | 100.00 | 100.00 | 100.00 | 100.00 | 100.00 | 9.20 | 8.18 | 6.18 | 4.31 | – | – | – | – | – | –
Nc1ncccc1C(=O)NCCCCCCCCCCCCN1CCNCC1 [Compound 5, 2-Amino-N-(12-(piperazin-1-yl)dodecyl)-nicotinamide] | reduction in the number of infiltrated cells | – | – | – | – | – | – | – | – | – | – | – | – | – | – | –
CC1CNCCN1CCCCCCCCCCCCNC(=O)c1cccnc1N (stereo not shown) [Compound 35, 2-Amino-N-(12-(2-methylpiperazin-1-yl)dodecyl) nicotinamide] | – | 100.00 | 100.00 | 100.00 | 100.00 | 100.00 | 1.18 | 0.64 | 0.42 | – | – | – | – | – | – | –
Nc1ncccc1C(=O)NCCCCCCCCCCCCN1CCS(=O)(=O)CC1 [Compound 25, 2-Amino-N-(12-(1,1-dioxidothiomorpholino)dodecyl) nicotinamide] | – | – | 100.00 | 100.00 | 100.00 | 100.00 | 9.73 | 1.26 | 0.11 | 0.95 | – | – | – | – | – | –
COC1CCN(CCCCCCCCCCCCNC(=O)c2cccnc2N)C1 (stereo not shown) [Compound 126, 2-amino-N-(12-(3-methoxypyrrolidin-1-yl)dodecyl) nicotinamide] | – | 100.00 | 100.00 | 100.00 | 100.00 | 100.00 | – | – | – | – | – | 0.00 | 33.03 | 31.98 | 32.32 | 30.44
CC1CN(CCCCCCCCCCCCNC(=O)c2cccnc2N)CC(C)O1 (stereo not shown) [Compound 21, 2-Amino-N-(12-(2,6-dimethylmorpholino)dodecyl) nicotinamide] | – | 100.00 | 100.00 | 100.00 | 100.00 | 100.00 | 9.64 | 7.68 | 3.70 | – | – | – | – | – | – | –
Cl.O=C(NCCCCCCCCCCCCN1CCNCC1)c1ccc(-c2ccccc2)o1 [Compound 90, 5-Phenyl-N-(12-(piperazin-1-yl)dodecyl) furan-2-carboxamide hydrochloride] | – | – | – | 100.00 | 100.00 | 100.00 | 7.19 | 5.94 | 2.48 | 1.94 | – | – | – | – | – | –
O=C(NCCCCCCCCCCCCN1CCN2CCCC2C1)c1cccnc1 (stereo not shown) [Compound 23, N-(12-(hexahydropyrrolo[1,2-a]pyrazin-2 (1H)-yl)dodecyl) nicotinamide] | reduction in the number of infiltrated cells | – | – | – | – | – | – | – | – | – | – | – | – | – | – | –
